For 18 compounds, IC50 results are on record in patent US9790221B2, “Heteroaryl compounds as IRAK inhibitors and uses thereof” (Merck Patent GmbH, priority 2014, dated 2017).

Structures can show the parent of a compound that is named as a salt.

The test system of test [1] is TLR7 induced IL-6 secretion in human mononuclear cells (PBMC's). Description: TLR7 induced IL-6 in human PBMC's. The settings on record: Homo sapiens, PBMC, read-out: TLR7 induced IL-6 secretion in hPBMC's (IC50). The test is classed as cell-based. Here is the method:
TLR7 Induced IL-6 in Human PBMC's
Human PBMC assay was used as one of the functional assay a to monitor the activity of IRAK1 and IRAK4 small molecule inhibitors on TLR7 induced IL-6 secretion in human mononuclear cells (PBMC's). Human PBMCs were prepared from buffy coats (whole blood enriched with leukocytes and platelets) obtained from healthy volunteers used either fresh or frozen are plated in assay media (RPMI+2% P/S/L-glu+10% HI-FBS) and pre-treated with compounds in DMSO/media (range of concentrations from 25 uM to 0.4 nM) or controls (0.25% DMSO) for 30 minutes at 37° C. in assay media. Following pre-treatment with IRAK1 and IRAK4 inhibitors, PBMC's were stimulated with TLR7 specific ligand (2 uM) overnight (16-18 hrs) at 37° C. After incubation supernatant was transferred to 384 well PE AlphaPlate-384 (6005350) and IL-6 is quantified using Perkin Elmer IL-6 Alpha LISA kit (AL223C). Plates were read on an Envision® plate reader with Alpha Technology®.

Another test addresses IRAK4 (Homo sapiens (Human), UniProt Q9NWZ3). Description: IRAK4 enzymatic assay. The format is biochemical. The method, boiled down:
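Recombinant His-TEV-IRAK4 (20 ng/well) phosphorylating biotinylated STK1 peptide (300 nM) with 2 μM ATP plus [^33P]ATP, 3 h at 30° C in pH 7.0 Hepes buffer with Mg2+ and Mn2+. Compounds 20 µM to 1 nM; EDTA stop, radioactivity captured on streptavidin FlashPlates.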

In test [2] the target is IRAK1 (His-TEV-IRAK1 (194-712)) (Homo sapiens (Human), UniProt P51617). In words: IRAK1 enzymatic assay. The format is biochemical. The method, boiled down:
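Recombinant His-TEV-IRAK1 (194-712), 15 ng/well, autophosphorylation with 1 μM ATP plus [33P]ATP, 3 h at 30° C in Hepes pH 7.0 buffer with MgCl2, DTT, EGTA, BSA and Triton; compounds from 20 µM to 1 nM. The reaction was stopped with EDTA, and radioactivity was counted in streptavidin FlashPlates.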

Chain of IRAK1 (His-TEV-IRAK1 (194-712)) (P51617 194-712): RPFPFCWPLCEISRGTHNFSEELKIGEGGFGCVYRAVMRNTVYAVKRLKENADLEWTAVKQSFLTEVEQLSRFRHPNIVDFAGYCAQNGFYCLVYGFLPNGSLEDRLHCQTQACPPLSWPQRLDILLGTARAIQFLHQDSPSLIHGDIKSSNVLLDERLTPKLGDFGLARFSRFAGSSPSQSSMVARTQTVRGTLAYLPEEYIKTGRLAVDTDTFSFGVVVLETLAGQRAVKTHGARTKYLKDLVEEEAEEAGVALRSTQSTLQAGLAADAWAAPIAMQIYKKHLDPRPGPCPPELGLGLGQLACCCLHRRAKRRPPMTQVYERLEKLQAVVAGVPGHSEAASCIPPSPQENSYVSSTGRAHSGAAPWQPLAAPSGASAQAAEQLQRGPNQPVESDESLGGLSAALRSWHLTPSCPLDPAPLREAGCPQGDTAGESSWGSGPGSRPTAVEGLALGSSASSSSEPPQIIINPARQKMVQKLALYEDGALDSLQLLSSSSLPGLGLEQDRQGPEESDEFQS
Chain of IRAK4 (Q9NWZ3 whole entry): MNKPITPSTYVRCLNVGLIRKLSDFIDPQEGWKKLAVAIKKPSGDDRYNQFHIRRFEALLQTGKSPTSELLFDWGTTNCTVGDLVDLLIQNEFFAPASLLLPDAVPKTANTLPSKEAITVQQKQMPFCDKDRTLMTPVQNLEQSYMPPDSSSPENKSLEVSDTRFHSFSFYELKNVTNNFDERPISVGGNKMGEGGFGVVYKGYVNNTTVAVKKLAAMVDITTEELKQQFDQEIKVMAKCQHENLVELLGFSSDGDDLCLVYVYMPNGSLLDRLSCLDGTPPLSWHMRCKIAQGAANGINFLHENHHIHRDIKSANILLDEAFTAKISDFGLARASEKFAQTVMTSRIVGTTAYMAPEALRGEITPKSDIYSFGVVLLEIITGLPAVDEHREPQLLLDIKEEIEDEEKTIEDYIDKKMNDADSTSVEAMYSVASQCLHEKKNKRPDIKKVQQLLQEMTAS

For `Cn1cc(-c2cccc(-c3ncc(-c4cnn(C)c4)c(NC45CCC(N)(C4)C5)n3)c2)cn1` [Example 66], the IC50 (as a rule, the concentration that inhibits the measured activity by half) in test [1] is 0.1 to 1 µM; against IRAK4 it was less than 0.1 µM; in test [2] it was less than 0.1 µM.

For `Cn1cc(-c2cccc(-c3ncc(-c4cnn(C)c4)c(NCCNS(C)(=O)=O)n3)c2)cn1` [Example 267], the IC50 in test [1] was 0.1 to 1 µM; against IRAK4 it was less than 0.1 µM; in test [2] it was 0.1 to 1 µM.

For the compound `Cn1cc(-c2cccc(-c3ncc(-c4cnn(C)c4)c(OCC4COC4)n3)c2)cn1` [Example 11, 5-(1-Methyl-1H-pyrazol-4-yl)-2-[3-(1-methyl-1H-pyrazol-4-yl)-phenyl]-4-(oxetan-3-ylmethoxy)-pyrimidine], the results for the half-maximal inhibitory concentration (IC50) (in test [1]; against IRAK4; in test [2]) were 1 to 5 µM, 0.1 to 1 µM and more than 5 µM, respectively.

As for `Cn1cc(-c2cccc(-c3ncc(-c4ccn(C)n4)c(NC4CCOC4)n3)c2)cn1` (stereo not drawn) [Example 119], the half-maximal inhibitory concentration (IC50) in test [1] was more than 5 µM; at IRAK4, 0.1 to 1 µM; in test [2], 1 to 5 µM.

Take `Cn1cc(-c2cccc(-c3ncc(-c4cnn(C)c4)c(NCC4COC4)n3)c2)cn1` [Example 63]: the concentration for half-maximal inhibition (IC50) in test [1] is 1 to 5 µM; on IRAK4, less than 0.1 µM; in test [2] it was 0.1 to 1 µM.

As for `CC(=O)NCCNc1nc(-c2cccc(-c3cnn(C)c3)c2)ncc1-c1cnn(C)c1` [Example 57], the half-maximal inhibitory concentration (IC50) was more than 5 µM in test [1], 0.1 to 1 µM against IRAK4 and 0.1 to 1 µM in test [2].

Regarding `Cn1cc(-c2cccc(-c3ncc(-c4cnn(C)c4)c(N[C@H]4CCN(S(C)(=O)=O)C4)n3)c2)cn1` [Example 170], the results for the 50% inhibitory concentration (IC50) in test [1] and in test [2] were 1 to 5 µM and 0.1 to 1 µM, respectively.

As to `Cc1nnc(-c2cnc(-c3cccc(-c4cnn(C)c4)c3)nc2NC2CCN(S(C)(=O)=O)CC2)s1` [Example 151], the IC50 in test [1] and in test [2] was 0.1 to 1 µM in each case.

`Cn1cc(-c2cccc(-c3ncc(-c4ccn(C)n4)c(O[C@@H]4CCC[C@@H](N)[C@@H]4O)n3)c2)cn1` [Example 132]: the IC50 in test [1] and in test [2] was 0.1 to 1 µM in each case.

Regarding `Cn1cc(-c2cccc(-c3ncc(-c4cnn(C)c4)c(NC4C5CCCC4CC(NS(C)(=O)=O)C5)n3)c2)cn1` (stereo not drawn) [Example 159], the IC50 is less than 0.1 µM at IRAK4 and more than 5 µM in test [2].

For the compound `Cn1cc(-c2cccc(-c3ncc(-c4cnn(C)c4)c(NCC4CCCNC4)n3)c2)cn1` (stereo not drawn) [Example 4, {5-(1-Methyl-1H-pyrazol-4-yl)-2-[3-(1-methyl-1H-pyrazol-4-yl)-phenyl]-pyrimidin-4-yl}-piperidin-3-ylmethyl-amine Hydrochloride], the IC50 (against IRAK4; in test [2]) was 1 to 5 µM throughout.

With `Cn1cc(-c2cccc(-c3ncc(-c4cnn(C)c4)c(NCC4CCN(S(C)(=O)=O)CC4F)n3)c2)cn1` (stereo not drawn) [Example 234], the IC50 was less than 0.1 µM against IRAK4 and 1 to 5 µM in test [2].

Consider `CC(Nc1nc(-c2cccc(-c3cnn(C)c3)c2)ncc1-c1cnn(C)c1)C1CCN(S(C)(=O)=O)CC1` (stereo not drawn) [Example 274], for which the figures for the IC50 (against IRAK4; in test [2]) were 0.1 to 1 µM and more than 5 µM, respectively.

As to `Cn1cc(-c2cccc(-c3ncc(-c4ccn(C)n4)c(N[C@H]4CC[C@H](O)CC4)n3)c2)cn1` [Example 147], the IC50 is less than 0.1 µM against IRAK4 and more than 5 µM in test [2].

As for `Cn1cc(-c2cccc(-c3ccc(-c4cnn(C5CCNCC5)c4)cn3)n2)cn1` [Example 2, 6′-(1-Methyl-1H-pyrazol-4-yl)-5-(1-piperidin-4-yl-1H-pyrazol-4-yl)-[2,2′]bipyridinyl], the IC50 fell in the range of 0.1 to 1 µM on IRAK4 and 1 to 5 µM in test [2].

Take `CC(=O)N[C@@H]1CCN(c2nc(-c3cccc(-c4cnn(C)c4)c3)ncc2-c2cnn(C)c2)C1` [Example 246]: the IC50 against IRAK4 was 1 to 5 µM; in test [2], more than 5 µM.

On to `Cn1cc(-c2cccc(-c3ncc(-c4cnn(C)c4)c(N4CCC(O)C4)n3)c2)cn1` (stereo not drawn) [Example 218], for which the figures for the IC50 (at IRAK4; in test [2]) were 0.1 to 1 µM and 1 to 5 µM, respectively.

Consider `Cn1cc(-c2cccc(-c3ncc(-c4cnn(C)c4)c(NC4CC4)n3)c2)cn1` [Example 30], for which the IC50 (on IRAK4; in test [2]) was 0.1 to 1 µM throughout.
